Measurements as given in patent publication US8034574B2, “Screening method for prokinetic agent” (Astellas Pharma Inc., priority 2006, dated 2011).
Entries after “also recorded” stand apart in the source; their conditions may differ. Counter-ions that a name gives are not always drawn.

What was measured:
[1] = target: T1, human TRPA1 (polypeptide of SEQ ID NO:2) (Homo sapiens, UniProt O75762, K186N/R3C/R58T); assay: Intracellular calcium by FLIPR in CHO-K1 cells expressing human TRPA1 (activator screening); format: cell-based
T1 construct: expressed in transfected cells; host or cells: CHO-K1 cells, transient transfection of the pcDNA3.1(+) human TRPA1 vector
Experimental: To detect the TRPA1 channel activity of a polypeptide consisting of the amino acid sequence shown by SEQ ID NO:2, the expression vector obtained in Example 1 above was transfected to animal cells, whereby the aforementioned protein was expressed.
Various test samples were added to CHO-K1 cells forced to is transiently express TRPA1 by the transfection operation of Example 2 above, and the resulting changes in intracellular calcium concentration were measured using FLIPR (Molecular Device).
To measure the changes in intracellular calcium concentration by FLIPR, the following pre-treatment was performed. First, an assay buffer for adding the fluorescent dye Fluo3-AM (DOJIN) to the cells, or for washing the cells just before performing the FLIPR assay, was prepared. To a solution prepared by adding 20 ml of 1M HEPES (pH 7.4) (Invitrogen) to 1000 ml of HBSS (Invitrogen) (hereinafter, HBSS/HEPES solution), 10 ml of a solution prepared by dissolving 710 mg of probenecid (Sigma) in 5 ml of 1N NaOH and then adding 5 ml of the HBSS/HEPES solution, was added and mixed, and this solution was used as the assay buffer. Next, 50 μg of Fluo3-AM was dissolved in 22 μl of DMSO (DOJIN), and an equal volume of 20% pluronic acid (Molecular Probes) was added and mixed, after which this mixture was added to 10.6 ml of the assay buffer supplemented with 105 μl of fetal bovine serum, whereby a fluorescent dye solution was prepared. […] After this pretreatment was performed, changes in intracellular calcium concentration after addition of the various test samples were measured with the FLIPR.
Compounds that activate a polypeptide consisting of the amino acid sequence shown by SEQ ID NO:2 (activators) were screened for. As an index of activation, calcium inflow in the cells was detected using a calcium-sensitive fluorescent reagent; specifically, the method described in Example 3 was used.

RIN14B cells [2] = assay: Channel activity in RIN14B cells using calcium-sensitive fluorescent reagent (FLIPR); format: cell-based, rat; details: for elevation of fluorescence intensity (calcium inflow) in RIN14B cells: Fluo3-AM
Experimental: RIN14B cells (5×10^4 cells), wherein the expression of TRPA1 was confirmed in Example 10, were incubated in the presence of a calcium-sensitive fluorescent reagent (Fluo3-AM; DOJINDO) at 37° C. for 1 hour to thereby incorporate the calcium-sensitive fluorescent reagent in the cells, after which the cells were washed with physiological saline to remove the calcium-sensitive fluorescent reagent that had not been incorporated in the cells. To the cells obtained, physiological saline supplemented with allyl isothiocyanate, cinnamic aldehyde, or acrolein was added; the fluorescence emitted by the cells was measured over time. The above-described measurements were performed using an automated fluorescence detection apparatus (FLIPR; Molecular Device). […] Ruthenium Red was added concurrently and a measurement was performed to determine whether or not calcium inflow in the cells was be inhibited.

guinea pig ileum [3] = assay: Isolated guinea pig gut constriction (Magnus, ileum); details: for EC50: Cavia porcellus, read-out: EC50(μM) †; for Action: Magnus (guinea pig ileum); for suppression of contraction upon stimulation with acrolein by serotonin receptor antagonists: acrolein 300 μM, pizotifen maleate 10 μM, ramosetron hydrochloride 0.3 μM, vs vehicle
Experimental: Guinea pigs (Hartley strain, male, weighing 300-400 g), under ether anesthesia, were exsanguinated to death by cutting the carotid artery. The ileum was extirpated, about 15-cm portions at both ends were removed, a section 1.5 cm long was cut out from the remaining portion, and incisions were made longitudinally parallelly in the gut to prepare a tabular specimen. This specimen was sandwiched with serrefine at both ends, and suspended with a thread in a Magnus chamber containing 10 ml of a 37° C. Krebs solution (118 mM NaCl, 4.7 mM KCl, 2.5 mM CaCl2, 1.2 mM MgSO4, 1.2 mM KH2PO4, 11 mM D-glucose, 20 mM NaHCO3) aerated with 95% O2-5% CO2 mixed gas. A 1-g load was applied to the specimen, buffers were exchanged at 15-minute intervals, and the specimen was allowed to stand for about 60 minutes to stabilize its tension. Changes in the tension in response to agonist stimulation were measured isometrically, and recorded on a recorder. Acetylcholine, 10^−5 M, was administered to induce contraction of the ileum specimen; after the contraction maximized, the bath was washed three times to purge out the acetylcholine. This operation was repeated at 10-minute intervals, and after the induced contraction stabilized two consecutive times, each test substance was administered. By comparing the contractile forces produced by acetylcholine and the test substance, the effect of the test substance was evaluated. One specimen was investigated only at one concentration of the test substance. […] From the results above, it was shown that the TRPA1 activator induced gut contraction.
The serotonin receptor antagonists used were pizotifen maleate (10 μM), a 5-HT1,2 receptor antagonist, ketanserin tartrate (0.1 μM), a 5-HT2 receptor antagonist, ramosetron hydrochloride (0.3 μM), a 5-HT3 receptor antagonist, and GR113808 (0.3 μM), a 5-HT4 receptor antagonist.
The inhibitory actions of various serotonin receptor antagonists on contraction upon stimulation with acrolein (300 μM) were investigated in the same manner. […] From the results above, it was shown that serotonin was released upon stimulation with acrolein to induce contraction via serotonin receptors such as 5-HT1 receptor and 5-HT3 receptor.

[4] = tested on: CHO-K1 cells not expressing the polypeptide shown by SEQ ID NO:2; assay: Intracellular calcium by FLIPR in negative control CHO-K1 cells; format: cell-based; details: CHO-K1 cells not expressing TRPA1
RIN14B cells [5] = assay: Serotonin secretion from RIN14B cells (immunoassay); format: cell-based, rat; details: for serotonin secretion from RIN14B cells: 20 minutes culture
Experimental: After RIN14B cells in culture in a Petri dish were detached using a PBS containing 1 mM EDTA, they were sown to a 96-well plate and cultured for 2 days. The medium used was RPMI1640 (Invitrogen Japan K.K.) supplemented with 10% fetal bovine serum (ICN), 100 U/ml penicillin, and 100 μg/ml streptomycin. After the cells were once washed with Hanks' Balanced Salt Solutions (HBSS, Invitrogen) supplemented with 0.1% BSA and 10 μM fluoxetine (TOCRIS), each TRPA1 activator, previously diluted/prepared with the above-described HBSS, was added, and the RIN14B cells were cultured at 37° C. in the presence of 5% CO2 for 20 minutes. After the cultivation, the cell supernatant was recovered, and stored under freezing. The serotonin content in the supernatant was measured using a commercially available serotonin immunoassay kit (Beckman).

guinea pig ileum [6] = assay: Isolated guinea pig gut constriction (Magnus, ileum); details: allyl isothiocyanate 300 μM; pizotifen maleate 10 μM, ramosetron hydrochloride 0.3 μM; vs vehicle
[7] = target: T1, human TRPA1 (polypeptide of SEQ ID NO:2); assay: TRPA1 inhibitor screening by FLIPR, calcium inflow after addition of cinnamic aldehyde; format: cell-based; details: read-out: inhibitory activity on the polypeptide of SEQ ID NO:2 in terms of IC50
Experimental: To measure the changes in intracellular calcium concentration by FLIPR, the following pre-treatment was performed. First, an assay buffer for adding the fluorescent dye Fluo3-AM (DOJIN) to the cells, or for washing the cells just before performing the FLIPR assay, was prepared. To a solution prepared by adding 20 ml of 1M HEPES (pH 7.4) (Invitrogen) to 1000 ml of HBSS (Invitrogen) (hereinafter, HBSS/HEPES solution), 10 ml of a solution prepared by dissolving 710 mg of probenecid (Sigma) in 5 ml of 1N NaOH and then adding 5 ml of the HBSS/HEPES solution, was added and mixed, and this solution was used as the assay buffer. […] After this pretreatment was performed, changes in intracellular calcium concentration after addition of the various test samples were measured with the FLIPR.
Compounds that inhibit a polypeptide consisting of the amino acid sequence shown by SEQ ID NO:2 (inhibitor) were screened for. Inhibitory activity was measured by performing detection of calcium inflow in the cells using a calcium-sensitive fluorescent reagent; specifically, the method described in Example 3 was used with a modification. […]

rat EC cells = assay: Serotonin secretion from rat small intestine EC cells; format: cell-based; details: 45 minutes culture
Experimental: A Wistar rat (male, 8-week-old) was decapitated and exsanguinated, after which it was dissected and laparotomized with scissors, and the small intestine was extirpated. The inside of the lumen of the extirpated small intestine was washed with physiological saline, and about 20 mL of Buffer A (70 mM NaCl, 5 mM KCl, 20 mM NaHCO3, 0.5 mM NaH2PO4, 50 mM HEPES (pH 7.2), 11 mM glucose, 3 mM EDTA, 0.5% BSA, 0.05 mM dithiothreitol, 1 mg/mL N-acetyl-L-cysteine) was injected, after which both ends were closed, and the small intestine was allowed to stand in 37° C. incubated HBSS for 10 minutes. Thereafter, the Buffer A in the lumen of the small intestine was discarded, about 20 mL of Buffer A was injected again, and the small intestine was allowed to stand in 37° C. incubated HBSS for 10 minutes. Again, the Buffer A in the lumen of the small intestine was discarded, fresh Buffer A was injected, and the small intestine was allowed to stand in 37° C. incubated HBSS for 20 minutes, after which the lumen content was recovered. […]
Serotonin secretion activity in EC cells prepared by the method described in Example 9-(3) was measured by a method modified from the method of Example 14 above. […]
The serotonin content in the supernatant was measured using a commercially available serotonin immunoassay kit (Beckman). […]

T1 sequence (O75762 whole entry R3C/R58T/K186N): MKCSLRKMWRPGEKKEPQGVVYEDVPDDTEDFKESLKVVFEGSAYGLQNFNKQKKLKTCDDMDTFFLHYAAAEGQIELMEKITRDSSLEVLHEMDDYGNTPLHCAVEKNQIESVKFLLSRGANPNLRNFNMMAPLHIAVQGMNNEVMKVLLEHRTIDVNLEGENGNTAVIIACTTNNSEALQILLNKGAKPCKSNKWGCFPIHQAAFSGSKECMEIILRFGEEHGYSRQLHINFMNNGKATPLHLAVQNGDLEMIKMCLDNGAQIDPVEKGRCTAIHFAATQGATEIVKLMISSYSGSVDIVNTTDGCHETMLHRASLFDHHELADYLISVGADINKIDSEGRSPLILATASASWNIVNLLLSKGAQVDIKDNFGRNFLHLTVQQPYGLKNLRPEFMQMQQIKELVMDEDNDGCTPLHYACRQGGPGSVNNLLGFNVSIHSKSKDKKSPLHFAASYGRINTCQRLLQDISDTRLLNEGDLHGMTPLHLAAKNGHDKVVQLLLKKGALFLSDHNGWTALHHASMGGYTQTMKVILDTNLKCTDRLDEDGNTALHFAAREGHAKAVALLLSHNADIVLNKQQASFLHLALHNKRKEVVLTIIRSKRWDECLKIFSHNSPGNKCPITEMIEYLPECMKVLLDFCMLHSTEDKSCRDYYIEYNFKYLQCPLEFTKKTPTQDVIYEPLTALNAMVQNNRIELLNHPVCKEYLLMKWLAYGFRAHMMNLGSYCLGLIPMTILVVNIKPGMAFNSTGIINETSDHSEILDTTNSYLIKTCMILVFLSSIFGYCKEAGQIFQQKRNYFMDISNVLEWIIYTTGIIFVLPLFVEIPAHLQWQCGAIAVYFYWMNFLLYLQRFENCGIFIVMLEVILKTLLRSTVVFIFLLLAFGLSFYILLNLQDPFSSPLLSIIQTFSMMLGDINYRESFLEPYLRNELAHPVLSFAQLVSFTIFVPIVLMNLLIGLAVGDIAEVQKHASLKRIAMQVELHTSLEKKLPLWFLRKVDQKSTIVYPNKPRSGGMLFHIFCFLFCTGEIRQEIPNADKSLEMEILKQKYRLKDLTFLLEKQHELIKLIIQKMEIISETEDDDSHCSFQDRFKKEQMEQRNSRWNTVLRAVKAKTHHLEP

| Compound | elevation of fluorescence intensity (calcium inflow) in RIN14B cells (RIN14B cells [2]; RIN14B cells) | EC50 (guinea pig ileum [3]) | Action (guinea pig ileum [3]) | elevation of fluorescence intensity in negative control cells [4] | serotonin secretion from RIN14B cells (RIN14B cells [5]) | suppression of contraction upon stimulation with acrolein by serotonin receptor antagonists (guinea pig ileum [3]) | suppression of contraction upon stimulation with allyl isothiocyanate by serotonin receptor antagonists (guinea pig ileum [6]) | other results |
| --- | --- | --- | --- | --- | --- | --- | --- | --- |
| C=CC=O [acrolein] | an elevation of fluorescence intensity was detected | 70.3 µM | Contraction | none of these compounds produced an elevation of fluorescence intensity | serotonin secretion was promoted; also recorded: concentration-dependently promoted the release of serotonin | – | – | EC50 [1]: 7 µM; change in intracellular calcium concentration ([1]; CHO-K1 cells expressing human TRPA1, FLIPR, Fluo3-AM): responded specifically (elevation of intracellular calcium concentration); concentration at which constrictive action was observed (guinea pig ileum [3]; tested at 10, 30, 100, 300 μM): ≥ 10 µM |
| Cn1cc(C(=O)[C@@H]2CCc3nc[nH]c3C2)c2ccccc21 [ramosetron hydrochloride] | – | – | – | – | – | about 84% | about 74% | – |
| N.N.N.N.N.N.N.N.N.N.N.N.N.N.[Cl-].[Cl-].[Cl-].[Cl-].[Cl-].[Cl-].[O-2].[O-2].[Ru+3].[Ru+3].[Ru+4] [Ruthenium Red] | – | – | – | – | – | – | – | inhibition of activation by allyl isothiocyanate (RIN14B cells [2]; 30 μM Ruthenium Red, RIN14B cells): 90.9%; inhibition of activator-induced elevation of fluorescence intensity (RIN14B cells [2]; added concurrently with allyl isothiocyanate, cinnamic aldehyde or acrolein): the elevation of fluorescence intensity was inhibited; suppression of contraction upon stimulation with allyl isothiocyanate by TRPA1 inhibitor (guinea pig ileum [3]; Ruthenium Red 30 μM for 15 minutes, allyl isothiocyanate 300 μM, vs vehicle-applied specimen): about 84%; IC50 [7]: 2.2 µM; inhibition of acrolein-induced serotonin secretion (RIN14B cells [5]; 30 μM Ruthenium Red, acrolein 30 μM): 73.0%; suppression of cinnamic aldehyde-induced serotonin secretion (RIN14B cells [5]; Ruthenium Red 30 μM, cinnamic aldehyde 30 μM): completely suppressed |
| pizotifen maleate | – | – | – | – | – | about 74% | about 44% | – |
| O=C/C=C/c1ccccc1 [cinnamic aldehyde] | an elevation of fluorescence intensity was detected | 88.3 µM | Contraction | none of these compounds produced an elevation of fluorescence intensity | serotonin secretion was promoted; also recorded: concentration-dependently promoted the release of serotonin | – | – | serotonin secretion from rat EC cells (rat EC cells): significant serotonin secretion promoting activity was observed; also recorded: promoted the release of serotonin from the EC cells |
